ChEMBL document CHEMBL1201862, “PubChem BioAssay data set” (2004)
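Exposure lasted 48 hours, with cells grown in 96-well plates and compounds tested at five concentrations. GI50 = concentration required for 50% inhibition of growth.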 Activity calls are given as the source filed them. No stated cut-off is given here; in the data, active = GI50 up to about 1.1 µM and inactive = higher.

Key:
Experiment in all cases: DTP human tumour cell line panel, 48 h
Malme-3M = system: Malme-3M
NCI-H460 = system: NCI-H460
SW-620 = system: SW-620
CCRF-CEM = system: CCRF-CEM
SF-268 = system: SF-268
NCI-H522 = system: NCI-H522
MOLT-4 = system: MOLT-4
UO-31 = system: UO-31
HL-60 = system: HL-60
SR = system: SR
SN12C = system: SN12C
U-251 = system: U-251
SF-539 = system: SF-539
SNB-75 = system: SNB-75
SNB-78 = system: SNB-78
SF-295 = system: SF-295
HOP-92 = system: HOP-92
MDA-MB-231 = system: MDA-MB-231
MCF7 = system: MCF7
DU-145 = system: DU-145

Measured: GI50

CCCCCC(O)(CCCCC)CCCCCCCCC1=C(O)C(=O)c2ccc(=O)[nH]c2C1=O
inactive: Malme-3M 3.75 µM | NCI-H460 8.85 µM | SW-620 8 µM | CCRF-CEM 5.62 µM | SF-268 5.02 µM | NCI-H522 4.78 µM | MOLT-4 6.3 µM | UO-31 13.3 µM | HL-60 4.92 µM | SR 27.3 µM | SN12C 7.64 µM | U-251 4.72 µM | SF-539 7.6 µM | SNB-75 17.5 µM | SNB-78 21.2 µM | SF-295 4.37 µM | HOP-92 13.3 µM

CCCCCCCCCCCCCCCCCCCCCC(=O)Nc1ccn(C2OC(CO)C(O)C2O)c(=O)n1 (configuration not stated)
inactive: Malme-3M > 42.4 µM | NCI-H460 2.32 µM | SW-620 > 57.4 µM | SF-268 18.4 µM | NCI-H522 > 100 µM | UO-31 32.1 µM | HL-60 10 µM | SR 1.67 µM | SN12C > 60.8 µM | U-251 > 92.9 µM | SF-539 > 100 µM | SNB-75 > 83.6 µM | SNB-78 > 100 µM | SF-295 > 84.3 µM | HOP-92 > 40.8 µM
active: CCRF-CEM 0.191 µM | MOLT-4 0.273 µM

NC(=S)N1N=C2c3ccccc3CCC[C@H]2[C@@H]1c1ccccc1
inactive: SF-268 3 µM | UO-31 1.9 µM | SN12C 2.52 µM | U-251 2.33 µM | SNB-78 5.77 µM | DU-145 1.54 µM
active: Malme-3M 0.488 µM | NCI-H460 1.07 µM | SW-620 0.385 µM | CCRF-CEM 0.528 µM | MDA-MB-231 0.513 µM | NCI-H522 0.361 µM | MOLT-4 0.638 µM | MCF7 0.472 µM | HL-60 0.589 µM | SR 0.249 µM | SF-539 0.518 µM | SNB-75 0.211 µM | SF-295 1.03 µM

COc1cc(/C=C\c2ccc(Cl)cc2)cc(OC)c1OC
active: Malme-3M 0.184 µM | NCI-H460 0.221 µM | SW-620 0.0552 µM | CCRF-CEM 0.0964 µM | SF-268 0.843 µM | NCI-H522 0.111 µM | MOLT-4 0.0762 µM | UO-31 0.593 µM | HL-60 0.0251 µM | SR 0.0652 µM | SN12C 0.508 µM | U-251 0.231 µM | SF-539 0.147 µM | SNB-75 0.188 µM | SNB-78 0.162 µM | SF-295 0.0331 µM | HOP-92 0.326 µM

O=c1oc2c(O)c(O)cc3c(=O)oc4c(O)c(O)cc1c4c23 [ELLAGIC ACID]
inactive: Malme-3M > 10 µM | NCI-H460 53.5 µM | SW-620 > 10 µM | CCRF-CEM > 10 µM | SF-268 56.5 µM | NCI-H522 24.1 µM | MOLT-4 > 10 µM | UO-31 39.7 µM | HL-60 > 10 µM | SR 71.1 µM | SN12C 38.1 µM | U-251 27.9 µM | SF-539 > 10 µM | SNB-75 32.4 µM | SNB-78 > 10 µM | SF-295 > 10 µM | HOP-92 31 µM
